# Columns and labels:
# [1] = test system: Dirofilaria immitis microfilariae; assay: In vitro assay 3: Dirofilaria immitis microfilariae (DIROIM L1), motility; details: 72 h, read-out: EC50 (reduction of motility), 72 h incubation
# [2] = target: C. elegans Slo-1a (Caenorhabditis elegans, UniProt Q95V25); details: pE50 (negative decadic logarithm of EC50), CHO cells expressing C. elegans Slo-1a, voltage sensitive dye
# [3] = test system: Nippostrongylus brasiliensis; assay: In vitro assay 2: Nippostrongylus brasiliensis (NIPOBR), acetylcholine esterase readout; details: read-out: activity (reduction of AChE compared to negative control); for inhibition at 10 µg/mL: 10 μg/ml; for inhibition at 1 µg/mL: 1 μg/ml
# Experimental: In Vitro Assay 2: Nippostrongylus brasiliensis (NIPOBR)
# Adult Nippostrongylus brasiliensis were washed with saline buffer containing 100 U/ml penicillin, 0.1 mg/ml streptomycin and 2.5 μg/ml amphotericin B. Test compounds were dissolved in DMSO and worms were incubated in medium in a final concentration of 10 μg/ml (10 ppm) respectively 1 μg/ml (1 ppm). An aliquot of the medium was used to determine the acetylcholine esterase activity in comparison to a negative control. The principle of measuring acetylcholine esterase as readout for anthelmintic activity was described in Rapson et al (1986) and Rapson et al (1987).
# Sequence of C. elegans Slo-1a (Q95V25 whole entry): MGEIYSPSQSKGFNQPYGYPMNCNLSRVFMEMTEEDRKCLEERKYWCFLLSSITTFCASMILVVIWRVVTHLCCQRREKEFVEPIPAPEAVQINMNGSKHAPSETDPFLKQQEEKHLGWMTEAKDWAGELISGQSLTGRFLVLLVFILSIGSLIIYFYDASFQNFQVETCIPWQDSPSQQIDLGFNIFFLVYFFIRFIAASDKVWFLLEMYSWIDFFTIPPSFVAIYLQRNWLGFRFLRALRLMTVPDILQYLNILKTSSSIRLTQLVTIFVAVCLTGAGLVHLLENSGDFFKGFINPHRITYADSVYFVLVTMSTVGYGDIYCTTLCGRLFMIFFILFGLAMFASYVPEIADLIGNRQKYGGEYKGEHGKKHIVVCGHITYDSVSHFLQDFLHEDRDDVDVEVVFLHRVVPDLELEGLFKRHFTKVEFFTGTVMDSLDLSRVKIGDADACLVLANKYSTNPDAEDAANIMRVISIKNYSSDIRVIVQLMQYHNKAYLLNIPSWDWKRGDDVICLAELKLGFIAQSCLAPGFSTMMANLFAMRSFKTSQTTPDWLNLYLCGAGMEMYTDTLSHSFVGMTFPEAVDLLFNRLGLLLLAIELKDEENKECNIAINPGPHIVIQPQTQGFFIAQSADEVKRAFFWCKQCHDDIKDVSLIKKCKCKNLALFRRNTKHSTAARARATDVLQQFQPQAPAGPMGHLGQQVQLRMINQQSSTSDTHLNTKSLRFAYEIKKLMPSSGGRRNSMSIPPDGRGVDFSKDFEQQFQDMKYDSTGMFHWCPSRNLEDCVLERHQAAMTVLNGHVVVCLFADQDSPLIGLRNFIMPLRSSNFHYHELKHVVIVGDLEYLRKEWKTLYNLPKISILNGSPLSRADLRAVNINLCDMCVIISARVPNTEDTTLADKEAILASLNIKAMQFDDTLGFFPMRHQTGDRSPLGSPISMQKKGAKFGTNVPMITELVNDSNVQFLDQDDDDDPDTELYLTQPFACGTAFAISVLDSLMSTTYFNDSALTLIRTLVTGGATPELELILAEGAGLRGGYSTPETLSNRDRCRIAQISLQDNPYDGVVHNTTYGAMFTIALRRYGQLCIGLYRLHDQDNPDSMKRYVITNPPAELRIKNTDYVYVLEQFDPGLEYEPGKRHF
SMILES,EC50 [1] [µg/mL],EC50 [2] [nM],inhibition at 10 µg/mL [3] [%],inhibition at 1 µg/mL [3] [%]
COc1ccc(F)cc1-c1cccc2c(N3CCC(O)C3)c(C(=O)N[C@H]3CCOc4ccccc43)cnc12 (mixture of isomers) [Example 270],< 0.1,3.16 to 31.6,,
O=C(N[C@H]1CCOc2ccccc21)c1cnc2c(-c3cc(Cl)cc(Cl)c3)cccc2c1C1CCNC1 (mixture of isomers) [Example 519],< 10,31.6 to 316,,
"O=C(N[C@H]1CCOc2ccccc21)c1cnc2c(-c3cc(Cl)cc(Cl)c3)cccc2c1Cl [Example 4, 4-chloro-8-(3,5-dichlorophenyl)-N-[(4S)-3,4-dihydro-2H-chromen-4-yl]quinoline-3-carboxamide]",< 0.1,3.16 to 31.6,,
O=C(N[C@H]1CCc2ccccc21)c1cnc2c(-c3cccc(Cl)c3)cccc2c1Cl [Example 6],< 0.1,3.16 to 31.6,,
CN(C)c1c(C(=O)N[C@H]2CCOc3ccccc32)cnc2c(-c3ccc4ncn(C)c4c3)cccc12 [Example 71],< 1,31.6 to 316,> 80,
O=C(N[C@H]1CCc2ccccc21)c1cnc2c(-c3cc(Cl)cc(Cl)c3)cccc2c1N1CC(O)C1 [Example 102],< 1,3.16 to 31.6,,
CC1CN(c2c(C(=O)N[C@H]3CCc4ccccc43)cnc3c(-c4cc(Cl)cc(Cl)c4)cccc23)C1 [Example 120],< 10,31.6 to 316,,
COC(=O)c1cc(-c2cccc3c(N4CCOCC4)c(C(=O)N[C@H]4CCOc5ccccc54)cnc23)c2ocnc2c1 [Example 216],< 1,31.6 to 316,,
COc1cc(F)c(-c2cccc3c(N4CCOCC4)c(C(=O)N[C@H]4CCOc5ccccc54)cnc23)cc1F [Example 230],< 1,31.6 to 316,,
CC(C)(C)OC(=O)[C@@H]1CCCN1c1c(C(=O)N[C@H]2CCc3ccccc32)cnc2c(-c3cc(Cl)cc(Cl)c3)cccc12 [Example 241],< 1,31.6 to 316,,
CC(C)(C)OC(=O)[C@@H]1CCCN1c1c(C(=O)N[C@H]2CCOc3ccccc32)cnc2c(-c3cc(Cl)cc(Cl)c3)cccc12 [Example 242],< 1,31.6 to 316,,
"CC(C)(C)OC(=O)[C@@H]1CCCN1c1c(C(=O)N[C@H]2CCOc3ccccc32)cnc2c(-c3cc(Cl)cc(Cl)c3)cccc12 [Example 243, tert-butyl 1-{8-(3,5-dichlorophenyl)-3-[(4S)-3,4-dihydro-2H-chromen-4-ylcarbamoyl]quinolin-4-yl}-L-prolinate]",,316 to 5010,,
O=C(N[C@H]1CCOc2ccccc21)c1cnc2c(-c3cc(Cl)cc(Cl)c3)cccc2c1N1CCC[C@@H]1CO [Example 287],< 10,3.16 to 31.6,,> 80
O=C(N[C@H]1CCc2ccccc21)c1cnc2c(-c3cc(Cl)cc(Cl)c3)cccc2c1N1CCC[C@@H]1C(=O)O [Example 299],< 1,31.6 to 316,,
O=C(NC1CCOc2ccccc21)c1cnc2c(-c3cc(Cl)cc(Cl)c3)cccc2c1N1CC2CCC(C1)O2 (stereo not drawn) [Example 302],< 10,< 3.16,,> 80
"C=C(C)c1c(C(=O)N[C@H]2CCOc3ccccc32)cnc2c(-c3cc(Cl)cc(Cl)c3)cccc12 [Example 317, 8-(3,5-dichlorophenyl)-N-[(4S)-3,4-dihydro-2H-chromen-4-yl]-4-(prop-1-en-2-yl)quinoline-3-carboxamide]",< 0.1,3.16 to 31.6,,
CCOC(=O)[C@@H]1CCCN1c1c(C(=O)N[C@H]2CCOc3ccccc32)cnc2c(-c3cc(Cl)cc(Cl)c3)cccc12 [Example 320],< 1,3.16 to 31.6,,
O=C(N[C@H]1CCc2ccccc21)c1cnc2c(-c3cc(Cl)cc(Cl)c3)cccc2c1OCC1CCCC1 [Example 348],< 1,3.16 to 31.6,,

SMILES,EC50 [1] [µg/mL],EC50 [2] [nM],inhibition at 10 µg/mL [3] [%],inhibition at 1 µg/mL [3] [%]
"CCOC(=O)C(C#N)c1c(C(=O)N[C@H]2CCOc3ccccc32)cnc2c(-c3cc(Cl)cc(Cl)c3)cccc12 (stereo partly drawn) [Example 354, ethyl cyano{8-(3,5-dichlorophenyl)-3-[(4S)-3,4-dihydro-2H-chromen-4-ylcarbamoyl]quinolin-4-yl}acetate]",< 1,31.6 to 316,,
O=C(N[C@H]1CCOc2ccccc21)c1cnc2c(-c3cc(Cl)cc(Cl)c3)cccc2c1Sc1ccccn1 [Example 363],< 10,316 to 5010,> 80,
COC(=O)CNc1c(C(=O)N[C@H]2CCOc3ccccc32)cnc2c(-c3cc(Cl)cc(Cl)c3)cccc12 [Example 375],< 0.1,3.16 to 31.6,,> 80
CN(C)c1c(C(=O)N[C@H]2CCOc3ccccc32)cnc2c(-c3ccc(C#N)s3)cccc12 [Example 389],< 10,31.6 to 316,,
O=C(N[C@H]1CCOc2ccccc21)c1cnc2c(-c3cc(Cl)cc(Cl)c3)cccc2c1N1CCC(F)(F)CC1 [Example 398],< 10,< 3.16,,
Cc1ncc(-c2cccc3c(N(C)C)c(C(=O)N[C@H]4CCOc5ccccc54)cnc23)s1 [Example 456],< 1,31.6 to 316,,
"Cc1nc2c(-c3cccc(Cl)c3Cl)cccc2c(N(C)C)c1C(=O)N[C@H]1CCOc2ccccc21 [Example 481, 8-(2,3-dichlorophenyl)-N-[(4S)-3,4-dihydro-2H-chromen-4-yl]-4-(dimethylamino)-2-methylquinoline-3-carboxamide]",< 10,3.16 to 31.6,,
CN(C)c1c(C(=O)NC2CCOc3ccc(Br)cc32)cnc2c(-c3cc(Cl)cc(Cl)c3)cccc12 (stereo not drawn) [Example 580],< 1,316 to 5010,,
CN(C)c1c(C(=O)NC2COCc3ccccc32)cnc2c(-c3cc(Cl)cc(Cl)c3)cccc12 (stereo not drawn) [Example 581],< 0.1,31.6 to 316,,> 80
CN(C)C(=O)c1c(C(=O)N[C@H]2CCOc3ccccc32)cnc2c(-c3cc(Cl)cc(Cl)c3)cccc12 [Example 585],< 1,3.16 to 31.6,,> 80
O=C(N[C@H]1CCOc2ccccc21)c1cnc2c(-c3cc(Cl)cc(Cl)c3)cccc2c1CO [Example 592],,316 to 5010,,
O=C(N[C@H]1CCOc2ccccc21)c1cnc2c(-c3cc(Cl)cc(Cl)c3)cccc2c1CCO [Example 593],,3.16 to 31.6,,
O=C(N[C@H]1CCOc2ccccc21)c1cnc2c(-c3cc(Cl)cc(Cl)c3)c(O)ccc2c1N1CCOCC1 [Example 616],< 0.1,< 3.16,,
O=C(N[C@H]1CCOc2ccccc21)c1cnc2c(-c3cc(Cl)ccc3F)cc(O)cc2c1N1CCOCC1 [Example 626],< 0.1,3.16 to 31.6,,> 80
CN(C)c1c(C(=O)NC2CCOc3c(Br)cccc32)cnc2c(-c3cc(Cl)cc(Cl)c3)cccc12 (stereo not drawn) [Example 634],< 0.1,31.6 to 316,,> 80
O=C(N[C@H]1CCOc2ccccc21)c1cnc2c(-c3cccc(Cl)c3Cl)cccc2c1C1=CCOCC1 [Example 653],< 0.1,< 3.16,,> 80
Cn1cc(-c2c(C(=O)N[C@H]3CCOc4ccccc43)cnc3c(-c4cc(Cl)cc(Cl)c4)cccc23)c(=O)n(C)c1=O [Example 654],< 1,31.6 to 316,,
CN(C)c1c(C(=O)NC2COCc3c(F)cccc32)cnc2c(-c3cc(Cl)cc(Cl)c3)cccc12 (stereo not drawn) [Example 665],,31.6 to 316,,

# Source: patent publication US10889573B2, “Anthelmintic quinoline-3-carboxamide derivatives” (Bayer Animal Health GMBH, priority 2016, dated 2021)
